Earlier results on 8 compounds are cited in patent US20110212461A1, “PREDICTION OF CARDIOTOXICITY” (priority 2010, published 2011).

The conditions of the data set: assessment positive or negative; marketed/external kinase inhibitors; from public literature and internal data.
Regarding `Cc1nc(Nc2ncc(C(=O)Nc3c(C)cccc3Cl)s2)cc(N2CCN(CCO)CC2)n1` [Sprycel, dasatinib], the Cardiotoxicity entry was “Positive”.
In the case of `COc1cc2ncnc(Nc3ccc(F)c(Cl)c3)c2cc1OCCCN1CCOCC1` [Iressa], the Cardiotoxicity result is reported as “Negative”.
In the case of `COc1cc2c(Nc3ccc(Br)cc3F)ncnc2cc1OCC1CCN(C)CC1` [Zactima], the Cardiotoxicity entry is “Positive”.
As for `CS(=O)(=O)CCNCc1ccc(-c2ccc3ncnc(Nc4ccc(OCc5cccc(F)c5)c(Cl)c4)c3c2)o1` [Tykerb], the Cardiotoxicity entry is “Negative”.
As for `Cc1cn(-c2cc(NC(=O)c3ccc(C)c(Nc4nccc(-c5cccnc5)n4)c3)cc(C(F)(F)F)c2)cn1` [Nilotinib], the Cardiotoxicity entry is “Positive”.
As to `C#Cc1cccc(Nc2ncnc3cc(OCCOC)c(OCCOC)cc23)c1` [Tarceva], the Cardiotoxicity entry was “Negative”.
Turning to `CNC(=O)c1cc(Oc2ccc(NC(=O)Nc3ccc(Cl)c(C(F)(F)F)c3)cc2)ccn1` [Nexavar, sorafenib], the Cardiotoxicity result is “Positive”.
For `CCN(CC)CCNC(=O)c1c(C)[nH]c(/C=C2\C(=O)Nc3ccc(F)cc32)c1C` [Sutent, sunitinib], the Cardiotoxicity entry is “Positive”.
